Data taken from ChEMBL document CHEMBL1201862, “PubChem BioAssay data set” (2004).
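Growth conditions: 96-well plates. Treatment: test compound, 48 hours, 5 concentrations. Analysis: linear interpolation between bracketing concentrations; unreached endpoints set to highest concentration. Abbreviation: GI50, concentration required for 50% inhibition of growth.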 The source made the active and inactive calls. No stated cut-off is given here; in the data, active = GI50 up to about 1.1 µM and inactive = higher.

Tests used:
Assay in all cases: NCI tumour cell line growth inhibition, 48 h
[1] = tested on: 786-0
[2] = tested on: NCI-H23
[3] = tested on: M19-MEL
[4] = tested on: CAKI-1
[5] = tested on: HOP-62
[6] = tested on: SF-268
[7] = tested on: A549
[8] = tested on: RXF 393
[9] = tested on: HOP-18
[10] = tested on: SNB-78
[11] = tested on: SF-295
[12] = tested on: SN12C
[13] = tested on: K562
[14] = tested on: OVCAR-4
[15] = tested on: IGROV-1
[16] = tested on: MOLT-4
[17] = tested on: HCT-116
[18] = tested on: NCI-H522
[19] = tested on: SF-539
[20] = tested on: SK-MEL-2
[21] = tested on: BT-549
[22] = tested on: SK-MEL-28
[23] = tested on: RPMI-8226
[24] = tested on: SR
[25] = tested on: OVCAR-3
[26] = tested on: SK-OV-3
[27] = tested on: UO-31
[28] = tested on: UACC-257
[29] = tested on: EKVX
[30] = tested on: KM12
[31] = tested on: KM-20L2
[32] = tested on: MCF7
[33] = tested on: PC-3
[34] = tested on: HCC 2998
[35] = tested on: Malme-3M
[36] = tested on: MDA-N
[37] = tested on: DLD-1
[38] = tested on: HL-60
[39] = tested on: M14
[40] = tested on: OVCAR-5
[41] = tested on: MDA-MB-435
[42] = tested on: CCRF-CEM
[43] = tested on: ACHN
[44] = tested on: UACC-62
[45] = tested on: HT-29
[46] = tested on: SNB-75
[47] = tested on: HCT-15
[48] = tested on: HOP-92
[49] = tested on: NCI-H460
[50] = tested on: SW-620
[51] = tested on: NCI/ADR-RES
[52] = tested on: COLO 205
[53] = tested on: NCI-H226
[54] = tested on: MDA-MB-231
[55] = tested on: DU-145
[56] = tested on: DMS-114
[57] = tested on: A498
[58] = tested on: T47D
[59] = tested on: LOX IMVI
[60] = tested on: SNB-19
[61] = tested on: LXFL 529
[62] = tested on: TK-10
[63] = tested on: DMS-273
[64] = tested on: OVCAR-8
[65] = tested on: U-251
[66] = tested on: SK-MEL-5
[67] = tested on: XF498

C=C1CC2CC[C@@]34C[C@H]5O[C@@H]6C(O[C@H]7CC[C@H](CC(=O)OC8[C@H](C)C9OC%10C[C@]%11(C[C@@H]%12O[C@]%13(C[C@H](C)[C@@H]%14O[C@H]([C@H](O)C[C@H](O)CO)C[C@@H]%14O%13)C[C@H](C)[C@@H]%12O%11)OC%10CC9O[C@H]8C[C@H]8O[C@H](CC[C@@H]1O2)C[C@@H](C)C8=C)O[C@H]7[C@@H]6O3)[C@@H]5O4 (some centres not stated)
GI50 [1]: 2.46 nM (active) | GI50 [2]: 0.605 nM (active) | GI50 [3]: 0.618 nM (active) | GI50 [4]: 0.491 nM (active) | GI50 [5]: 1.31 nM (active) | GI50 [6]: 3.76 nM (active) | GI50 [7]: 1.47 nM (active) | GI50 [8]: 0.674 nM (active) | GI50 [9]: < 10 nM (active) | GI50 [10]: 2.61 nM (active) | GI50 [11]: 0.46 nM (active) | GI50 [12]: 4.05 nM (active) | GI50 [13]: 0.484 nM (active) | GI50 [14]: 5.05 nM (active) | GI50 [15]: 2.18 nM (active) | GI50 [16]: 0.752 nM (active) | GI50 [17]: 0.513 nM (active) | GI50 [18]: 0.211 nM (active) | GI50 [19]: 0.676 nM (active) | GI50 [20]: 1.49 nM (active) | GI50 [21]: 1310 nM (inactive) | GI50 [22]: 2.19 nM (active) | GI50 [23]: 0.255 nM (active) | GI50 [24]: 0.498 nM (active) | GI50 [25]: 0.303 nM (active) | GI50 [26]: 2.21 nM (active) | GI50 [27]: 5.39 nM (active) | GI50 [28]: 0.8 nM (active) | GI50 [29]: 0.141 nM (active) | GI50 [30]: 0.46 nM (active) | GI50 [31]: 0.395 nM (active) | GI50 [32]: 0.255 nM (active) | GI50 [33]: 0.106 nM (active) | GI50 [34]: 2.01 nM (active) | GI50 [35]: 1.31 nM (active) | GI50 [36]: 0.1 nM (active) | GI50 [37]: 1.8 nM (active) | GI50 [38]: 0.237 nM (active) | GI50 [39]: 1.43 nM (active) | GI50 [40]: 8.45 nM (active) | GI50 [41]: 0.1 nM (active) | GI50 [42]: 0.588 nM (active) | GI50 [43]: 4.11 nM (active) | GI50 [44]: 0.469 nM (active) | GI50 [45]: 0.372 nM (active) | GI50 [46]: 0.321 nM (active) | GI50 [47]: 0.935 nM | GI50 [48]: 1.66 nM (active) | GI50 [49]: 0.859 nM (active) | GI50 [50]: 0.482 nM (active) | GI50 [51]: 0.516 nM (active) | GI50 [52]: 0.492 nM (active) | GI50 [53]: 2.31 nM (active) | GI50 [54]: 0.728 nM (active) | GI50 [55]: 0.113 nM (active) | GI50 [56]: 0.37 nM (active) | GI50 [57]: 1.08 nM (active) | GI50 [58]: 2650 nM (inactive) | GI50 [59]: 0.597 nM (active) | GI50 [60]: 1.91 nM (active) | GI50 [61]: 1.29 nM (active) | GI50 [62]: 6.81 nM (active) | GI50 [63]: 0.538 nM (active) | GI50 [64]: 2.22 nM (active) | GI50 [65]: 0.899 nM (active) | GI50 [66]: 0.24 nM (active) | GI50 [67]: 1.23 nM (active)

c1ccc(C2N=C(c3ccccn3)C(c3ccccn3)=NC2c2ccccc2)cc1 (configuration not stated)
GI50 [1]: > 100000 nM (inactive) | GI50 [2]: > 100000 nM (inactive) | GI50 [3]: > 100000 nM (inactive) | GI50 [4]: > 100000 nM (inactive) | GI50 [5]: 20000 nM (inactive) | GI50 [6]: > 100000 nM (inactive) | GI50 [7]: > 100000 nM (inactive) | GI50 [8]: > 100000 nM (inactive) | GI50 [9]: 84700 nM (inactive) | GI50 [10]: > 100000 nM (inactive) | GI50 [11]: > 100000 nM (inactive) | GI50 [13]: > 100000 nM (inactive) | GI50 [14]: > 100000 nM (inactive) | GI50 [15]: > 100000 nM (inactive) | GI50 [16]: > 100000 nM (inactive) | GI50 [17]: > 100000 nM (inactive) | GI50 [18]: > 100000 nM (inactive) | GI50 [19]: > 100000 nM (inactive) | GI50 [20]: > 100000 nM (inactive) | GI50 [22]: > 100000 nM (inactive) | GI50 [23]: > 100000 nM (inactive) | GI50 [25]: > 100000 nM (inactive) | GI50 [26]: > 100000 nM (inactive) | GI50 [27]: > 100000 nM (inactive) | GI50 [28]: > 100000 nM (inactive) | GI50 [29]: > 100000 nM (inactive) | GI50 [30]: > 100000 nM (inactive) | GI50 [31]: > 100000 nM (inactive) | GI50 [34]: > 100000 nM (inactive) | GI50 [35]: > 100000 nM (inactive) | GI50 [37]: > 100000 nM (inactive) | GI50 [38]: > 100000 nM (inactive) | GI50 [39]: > 100000 nM (inactive) | GI50 [40]: > 100000 nM (inactive) | GI50 [42]: > 100000 nM (inactive) | GI50 [43]: > 100000 nM (inactive) | GI50 [44]: > 100000 nM (inactive) | GI50 [45]: > 100000 nM (inactive) | GI50 [47]: > 100000 nM | GI50 [48]: > 100000 nM (inactive) | GI50 [49]: > 100000 nM (inactive) | GI50 [50]: > 100000 nM (inactive) | GI50 [52]: > 100000 nM (inactive) | GI50 [53]: > 100000 nM (inactive) | GI50 [56]: > 100000 nM (inactive) | GI50 [57]: > 100000 nM (inactive) | GI50 [59]: > 100000 nM (inactive) | GI50 [60]: 19100 nM (inactive) | GI50 [61]: > 100000 nM (inactive) | GI50 [62]: > 100000 nM (inactive) | GI50 [63]: > 100000 nM (inactive) | GI50 [64]: > 100000 nM (inactive) | GI50 [65]: > 100000 nM (inactive) | GI50 [66]: > 100000 nM (inactive) | GI50 [67]: > 100000 nM (inactive)
